Source: BindingDB's records for doi:10.1016/j.bmcl.2014.03.015 (Jiangnan University, 2014)

Molecular target: T1, Tyrosine-protein phosphatase non-receptor type 11 (Homo sapiens, UniProt Q06124)
T1 sequence (Q06124 whole entry): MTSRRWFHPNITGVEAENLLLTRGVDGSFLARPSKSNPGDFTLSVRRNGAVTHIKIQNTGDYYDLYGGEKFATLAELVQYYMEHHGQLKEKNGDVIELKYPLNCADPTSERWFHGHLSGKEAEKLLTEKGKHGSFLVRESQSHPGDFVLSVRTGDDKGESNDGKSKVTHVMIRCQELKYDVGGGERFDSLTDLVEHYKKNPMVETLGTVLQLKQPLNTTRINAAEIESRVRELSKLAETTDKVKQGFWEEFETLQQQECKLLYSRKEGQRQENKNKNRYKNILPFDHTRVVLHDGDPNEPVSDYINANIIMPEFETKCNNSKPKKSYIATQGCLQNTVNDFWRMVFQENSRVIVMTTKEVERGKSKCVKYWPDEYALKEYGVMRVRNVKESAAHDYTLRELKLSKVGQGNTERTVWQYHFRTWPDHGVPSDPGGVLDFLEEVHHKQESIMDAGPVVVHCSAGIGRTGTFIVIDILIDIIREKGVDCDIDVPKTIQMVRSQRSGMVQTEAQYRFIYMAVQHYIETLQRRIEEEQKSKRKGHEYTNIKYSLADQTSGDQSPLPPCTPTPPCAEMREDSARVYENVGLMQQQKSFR
Experiment: pNPP assay

| Structure (SMILES) | IC50 |
| --- | --- |
| O=C(Nc1ccc(-c2ccc(NC(=O)c3ccc(F)cc3)cn2)cc1)c1ccc(F)cc1 [4-fluoro-N-(6-(4-(4-fluorobenzamido)phenyl)pyridin-3-yl)benzamide (29)] | 19.7 µM |
| [O]=[V]([OH])([OH])[OH] | 34.7 µM |
